According to PMC10033419, “Blocking NS3–NS4B interaction inhibits dengue virus in non-human primates” (Nature, 2023):
Several values for one entry are separate records, joined by “and”; a condition that tells them apart may be missing. Equal entries are not always repeated. Where two headings read alike, the source gives them in different places.

Tested on: DENV-2 RL
Test: microbe, parasite or virus in culture
Format: cell-based
Settings: Dengue virus, DENV2, Vero

COc1cc(N[C@H](C(=O)c2c[nH]c3ccc(OC(F)(F)F)cc23)c2ccc(Cl)cc2OC)cc(S(C)(=O)=O)c1 [JNJ-1802]
EC50 (read-out: EC50 values Ave, B sample, passage 8): 0.126 nM | EC50 (read-out: EC50 values Ave, B sample, passage 9): 0.126 nM | EC50 (read-out: EC50 values Ave, B sample, passage 10): 0.126 nM | EC50 (read-out: EC50 values Ave, B sample, passage 11): 0.000146 µg/mL and 0.251 nM | EC50 (read-out: EC50 values Ave, B sample, passage 12): 0.000146 µg/mL and 0.251 nM | EC50 (read-out: EC50 values Ave, B sample, passage 13): 0.000293 µg/mL and 0.503 nM | EC50 (read-out: EC50 values Ave, B sample, passage 14): 0.126 nM | EC50 (read-out: EC50 values Ave, B sample, passage 15): 0.126 nM | EC50 (read-out: EC50 values Ave, B sample, passage 16): 0.000146 µg/mL and 0.251 nM | EC50 (read-out: EC50 values Ave, B sample, passage 17): 0.000146 µg/mL and 0.251 nM | EC50 (read-out: EC50 values Ave, B sample, passage 18): 0.000146 µg/mL and 0.251 nM | EC50 (read-out: EC50 values Ave, B sample, passage 19): 0.000293 µg/mL and 0.503 nM | EC50 (read-out: EC50 values Ave, B sample, passage 20): 0.000293 µg/mL and 0.503 nM | EC50 (read-out: EC50 values Ave, B sample, passage 21): 0.000293 µg/mL and 0.503 nM | EC50 (read-out: EC50 values Ave, B sample, passage 22): 0.000293 µg/mL and 0.503 nM | EC50 (read-out: EC50 values Ave, B sample, passage 23): 1.01 nM | EC50 (read-out: EC50 values Ave, B sample, passage 24): 0.00117 µg/mL and 2.01 nM | EC50 (read-out: EC50 values Ave, B sample, passage 25): 0.00234 µg/mL and 4.02 nM | EC50 (read-out: EC50 values Ave, B sample, passage 26): 0.00469 µg/mL and 8.04 nM | EC50 (read-out: EC50 values Ave, B sample, passage 27): 0.00469 µg/mL and 8.04 nM | EC50 (read-out: EC50 values Ave, B sample, passage 28): 0.00469 µg/mL and 8.04 nM | EC50 (read-out: EC50 values Ave, B sample, passage 31): 0.0234 µg/mL and 40.2 nM | EC50 (read-out: EC50 values Ave, B sample, passage 32): 0.0234 µg/mL and 40.2 nM | EC50 (read-out: EC50 values Ave, B sample, passage 33): 0.0469 µg/mL and 80.4 nM | EC50 (read-out: EC50 values Ave, B sample, passage 34): 0.0469 µg/mL and 80.4 nM | EC50 (read-out: EC50 values Ave, B sample, passage 35): 0.0469 µg/mL and 80.4 nM | EC50 (read-out: EC50 values Ave, B sample, passage 36): 0.0469 µg/mL and 80.4 nM | EC50 (read-out: EC50 values Ave, B sample, passage 37): 0.0469 µg/mL and 80.4 nM | EC50 (read-out: EC50 values Ave, B sample, passage 38): 0.0469 µg/mL and 80.4 nM | EC50 (read-out: EC50 values Ave, B sample, passage 39): 0.0938 µg/mL and 161 nM | EC50 (read-out: EC50 values Ave, B sample, passage 40): 322 nM | EC50 (read-out: EC50 values Ave, B sample, passage 41): 0.375 µg/mL and 643 nM | EC50 (read-out: EC50 values Ave, B sample, passage 42): 0.375 µg/mL and 643 nM | EC50 (read-out: EC50 values Ave, B sample, passage 43): 0.375 µg/mL and 643 nM | EC50 (read-out: EC50 values Ave, B sample, passage 44): 0.375 µg/mL and 643 nM | EC50 (read-out: EC50 values Ave, B sample, passage 45): 0.375 µg/mL and 643 nM | EC50 (read-out: EC50 values Ave, B sample, passage 46): 0.375 µg/mL and 643 nM | EC50 (read-out: EC50 values Ave, B sample, passage 47): 0.375 µg/mL and 643 nM | EC50 (read-out: EC50 values Ave, B sample, passage 48): 1290 nM | EC50 (read-out: EC50 values Ave, B sample, passage 49): 1290 nM | EC50 (read-out: EC50 values Ave, B sample, passage 50 (END)): 1290 nM | EC50 (read-out: EC50 values [Well 1], A sample, passage 1): 0.049 ng/mL | EC50 (read-out: EC50 values [Well 1], A sample, passage 2): 0.049 ng/mL | EC50 (read-out: EC50 values [Well 1], A sample, passage 3): 0.049 ng/mL | EC50 (read-out: EC50 values [Well 1], A sample, passage 4): 0.049 ng/mL | EC50 (read-out: EC50 values [Well 1], A sample, passage 5): 0.049 ng/mL | EC50 (read-out: EC50 values [Well 1], A sample, passage 7): 0.049 ng/mL | EC50 (read-out: EC50 values [Well 1], A sample, passage 8): 0.049 ng/mL | EC50 (read-out: EC50 values [Well 1], A sample, passage 10): 0.195 ng/mL | EC50 (read-out: EC50 values [Well 1], A sample, passage 11): 0.195 ng/mL | EC50 (read-out: EC50 values [Well 1], A sample, passage 12): 0.195 ng/mL | EC50 (read-out: EC50 values [Well 1], A sample, passage 13): 0.391 ng/mL | EC50 (read-out: EC50 values [Well 1], A sample, passage 16): 1.56 ng/mL | EC50 (read-out: EC50 values [Well 1], A sample, passage 17): 3.13 ng/mL | EC50 (read-out: EC50 values [Well 1], A sample, passage 18): 6.25 ng/mL | EC50 (read-out: EC50 values [Well 1], A sample, passage 20): 25 ng/mL | EC50 (read-out: EC50 values [Well 1], A sample, passage 21): 25 ng/mL | EC50 (read-out: EC50 values [Well 1], A sample, passage 22): 25 ng/mL | EC50 (read-out: EC50 values [Well 1], A sample, passage 23): 25 ng/mL | EC50 (read-out: EC50 values [Well 1], A sample, passage 24): 50 ng/mL | EC50 (read-out: EC50 values [Well 1], A sample, passage 25): 50 ng/mL | EC50 (read-out: EC50 values [Well 1], A sample, passage 26): 100 ng/mL | EC50 (read-out: EC50 values [Well 1], A sample, passage 27): 200 ng/mL | EC50 (read-out: EC50 values [Well 1], A sample, passage 28): 200 ng/mL | EC50 (read-out: EC50 values [Well 1], A sample, passage 29): 200 ng/mL | EC50 (read-out: EC50 values [Well 1], A sample, passage 30): 200 ng/mL | EC50 (read-out: EC50 values [Well 1], A sample, passage 31): 100 ng/mL
